In brackets after ≈: the same amount, converted by molar mass.
Experiments:
Klebsiella pneumoniae [1] = assay: Antibacterial activity against beta-lactamase KPC-2 producing Klebsiella pneumoniae isolate K10 by agar dilution method; type: functional
Escherichia coli [2] = assay: Antibacterial activity against Escherichia coli EC600 by agar dilution method; type: functional
Serratia marcescens [3] = assay: Antibacterial activity against beta-lactamase KPC-2 producing Serratia marcescens isolate S1 to S21 by agar dilution method
Escherichia coli [4] = assay: microbe, parasite or virus in culture; settings: isolate E1
Description: (§1) Antibacterial activity against beta-lactamase KPC-2 producing Escherichia coli isolate E1 by agar dilution method

Klebsiella pneumoniae [5] = assay: Antibacterial activity against beta-lactamase KPC-2 producing Klebsiella pneumoniae isolate K1 to K9 by agar dilution method; type: functional
Escherichia coli [6] = assay: Antibacterial activity against Escherichia coli EC600 transconjugant harboring beta-lactamase KPC-2 by agar dilution method; type: functional
Klebsiella pneumoniae [7] = assay: Antibacterial activity against beta-lactamase KPC-2 producing Klebsiella pneumoniae isolate K1 to K9 in presence of Sulbactam by agar dilution method; type: functional
Escherichia coli [8] = assay: microbe, parasite or virus in culture; settings: isolate E1; remark: listed apart in the source
Description: Antibacterial activity against beta-lactamase KPC-2 producing Escherichia coli isolate E1 in presence of Sulbactam by agar dilution method

Escherichia coli [9] = assay: Antibacterial activity against Escherichia coli EC600 in presence of Sulbactam by agar dilution method; type: functional
Klebsiella pneumoniae [10] = assay: Antibacterial activity against beta-lactamase KPC-2 producing Klebsiella pneumoniae isolate K10 in presence of Sulbactam by agar dilution method; type: functional
Escherichia coli [11] = assay: Antibacterial activity against Escherichia coli EC600 transconjugant harboring beta-lactamase KPC-2 in presence of Sulbactam by agar dilution method
Serratia marcescens [12] = assay: Antibacterial activity against beta-lactamase KPC-2 producing Serratia marcescens isolate S1 to S21 in presence of Sulbactam by agar dilution method; type: functional
Klebsiella pneumoniae [13] = assay: Antibacterial activity against beta-lactamase KPC-2 producing Klebsiella pneumoniae isolate K1 to K9 in presence of Tazobactam by agar dilution method; type: functional
Klebsiella pneumoniae [14] = assay: Antibacterial activity against beta-lactamase KPC-2 producing Klebsiella pneumoniae isolate K10 in presence of Tazobactam by agar dilution method; type: functional
Escherichia coli [15] = assay: Antibacterial activity against Escherichia coli EC600 transconjugant harboring beta-lactamase KPC-2 in presence of Tazobactam by agar dilution method; type: functional
Escherichia coli [16] = assay: Antibacterial activity against beta-lactamase KPC-2 producing Escherichia coli isolate E1 in presence of Tazobactam by agar dilution method; type: functional
Escherichia coli [17] = assay: Antibacterial activity against Escherichia coli EC600 in presence of Tazobactam by agar dilution method; type: functional
Serratia marcescens [18] = assay: Antibacterial activity against beta-lactamase KPC-2 producing Serratia marcescens isolate S1 to S21 in presence of Tazobactam by agar dilution method; type: functional
Escherichia coli [19] = settings: isolate E1
Description: as §1

Compound: C[C@@H](O)[C@H]1C(=O)N2C(C(=O)O)=C(S[C@@H]3CN[C@H](C(=O)Nc4cccc(C(=O)O)c4)C3)[C@H](C)[C@H]12
- MIC (Klebsiella pneumoniae [1]): > 256 µg/mL
- MIC (Escherichia coli [2]): ≤ 0.125 µg/mL
- MIC (Serratia marcescens [3]): 4 µg/mL (≈ 8.41 µM)
- MIC (Escherichia coli [4]): 8 µg/mL (≈ 16.8 µM)
- MIC (Klebsiella pneumoniae [5]): 8 µg/mL (≈ 16.8 µM)
- MIC (Escherichia coli [6]): 4 µg/mL (≈ 8.41 µM)

Compound: CO/N=C(\C(=O)N[C@@H]1C(=O)N2C(C(=O)[O-])=C(C[N+]3(C)CCCC3)CS[C@H]12)c1csc(N)n1
- MIC (Klebsiella pneumoniae [1]): 256 µg/mL (≈ 533 µM)
- MIC (Escherichia coli [2]): ≤ 0.125 µg/mL
- MIC (Serratia marcescens [3]): 8 µg/mL (≈ 16.6 µM)
- MIC (Escherichia coli [4]): 64 µg/mL (≈ 133 µM)
- MIC (Escherichia coli [6]): 8 µg/mL (≈ 16.6 µM)

Compound: CC1(C)S[C@@H]2[C@H](NC(=O)[C@H](N)c3ccccc3)C(=O)N2[C@H]1C(=O)O [AMPICILLIN]
- MIC (Klebsiella pneumoniae [1]): > 256 µg/mL
- MIC (Escherichia coli [2]): 8 µg/mL (≈ 22.9 µM)
- MIC (Serratia marcescens [3]): > 256 µg/mL
- MIC (Escherichia coli [4]): > 256 µg/mL
- MIC (Klebsiella pneumoniae [5]): > 256 µg/mL
- MIC (Escherichia coli [6]): > 256 µg/mL

Compound: C[C@H]1[C@H](NC(=O)/C(=N\OC(C)(C)C(=O)O)c2csc(N)n2)C(=O)N1S(=O)(=O)O [AZTREONAM]
- MIC (Klebsiella pneumoniae [1]): > 256 µg/mL
- MIC (Escherichia coli [2]): ≤ 0.125 µg/mL
- MIC (Serratia marcescens [3]): 128 µg/mL (≈ 294 µM)
- MIC (Escherichia coli [4]): 256 µg/mL (≈ 588 µM)
- MIC (Klebsiella pneumoniae [5]): 256 µg/mL (≈ 588 µM)
- MIC (Escherichia coli [6]): 128 µg/mL (≈ 294 µM)

Compound: CCN1CCN(C(=O)N[C@@H](C(=O)N[C@@H]2C(=O)N3C(C(=O)O)=C(CSc4nnnn4C)CS[C@H]23)c2ccc(O)cc2)C(=O)C1=O [CEFOPERAZONE]
- MIC (Klebsiella pneumoniae [7]): 128 µg/mL
- MIC (Escherichia coli [8]): 128 µg/mL (≈ 198 µM)
- MIC (Escherichia coli [9]): ≤ 0.125 µg/mL
- MIC (Klebsiella pneumoniae [10]): > 256 µg/mL
- MIC (Escherichia coli [11]): 32 µg/mL
- MIC (Serratia marcescens [12]): 32 µg/mL

Compound: CO/N=C(\C(=O)N[C@@H]1C(=O)N2C(C(=O)O)=C(COC(C)=O)CS[C@H]12)c1csc(N)n1 [CEFOTAXIME]
- MIC (Klebsiella pneumoniae [1]): 256 µg/mL (≈ 562 µM)
- MIC (Escherichia coli [2]): ≤ 0.125 µg/mL
- MIC (Serratia marcescens [3]): 16 µg/mL (≈ 35.1 µM)
- MIC (Escherichia coli [4]): 256 µg/mL (≈ 562 µM)
- MIC (Klebsiella pneumoniae [5]): 128 µg/mL (≈ 281 µM)
- MIC (Escherichia coli [6]): 8 µg/mL (≈ 17.6 µM)

Compound: CO[C@@]1(NC(=O)Cc2cccs2)C(=O)N2C(C(=O)O)=C(COC(N)=O)CS[C@@H]21 [CEFOXITIN]
- MIC (Klebsiella pneumoniae [1]): 256 µg/mL (≈ 599 µM)
- MIC (Escherichia coli [2]): 8 µg/mL (≈ 18.7 µM)
- MIC (Serratia marcescens [3]): 16 µg/mL (≈ 37.4 µM)
- MIC (Escherichia coli [4]): 32 µg/mL (≈ 74.9 µM)
- MIC (Klebsiella pneumoniae [5]): 8 µg/mL (≈ 18.7 µM)
- MIC (Escherichia coli [6]): 16 µg/mL (≈ 37.4 µM)

Compound: CC(C)(O/N=C(\C(=O)N[C@@H]1C(=O)N2C(C(=O)[O-])=C(C[n+]3ccccc3)CS[C@H]12)c1csc(N)n1)C(=O)O [CEFTAZIDIME]
- MIC (Klebsiella pneumoniae [1]): 256 µg/mL (≈ 468 µM)
- MIC (Escherichia coli [2]): 0.25 µg/mL (≈ 0.457 µM)
- MIC (Serratia marcescens [3]): 8 µg/mL (≈ 14.6 µM)
- MIC (Escherichia coli [4]): 64 µg/mL (≈ 117 µM)
- MIC (Klebsiella pneumoniae [5]): 64 µg/mL (≈ 117 µM)
- MIC (Escherichia coli [6]): 16 µg/mL (≈ 29.3 µM)

Compound: CO/N=C(\C(=O)N[C@@H]1C(=O)N2C(C(=O)O)=C(CSc3nc(=O)c(O)nn3C)CS[C@H]12)c1csc(N)n1 [CEFTRIAXONE]
- MIC (Klebsiella pneumoniae [1]): > 256 µg/mL
- MIC (Escherichia coli [2]): ≤ 0.125 µg/mL
- MIC (Serratia marcescens [3]): 32 µg/mL (≈ 57.7 µM)
- MIC (Escherichia coli [4]): > 256 µg/mL
- MIC (Klebsiella pneumoniae [5]): 256 µg/mL (≈ 462 µM)
- MIC (Escherichia coli [6]): 32 µg/mL (≈ 57.7 µM)

Compound: O=C(O)c1cn(C2CC2)c2cc(N3CCNCC3)c(F)cc2c1=O [CIPROFLOXACIN]
- MIC (Escherichia coli [4]): > 32 µg/mL

Compound: C[C@@H](O)[C@H]1C(=O)N2C(C(=O)O)=C(SCCNC=N)C[C@H]12 [IMIPENEM ANHYDROUS]
- MIC (Klebsiella pneumoniae [1]): 128 µg/mL (≈ 428 µM)
- MIC (Escherichia coli [2]): ≤ 0.125 µg/mL
- MIC (Serratia marcescens [3]): 4 µg/mL (≈ 13.4 µM)
- MIC (Escherichia coli [4]): 2 µg/mL (≈ 6.68 µM)
- MIC (Klebsiella pneumoniae [5]): 2 µg/mL (≈ 6.68 µM)
- MIC (Escherichia coli [6]): 1 µg/mL (≈ 3.34 µM)

Compound: C[C@@H](O)[C@H]1C(=O)N2C(C(=O)O)=C(S[C@@H]3CN[C@H](C(=O)N(C)C)C3)[C@H](C)[C@H]12 [MEROPENEM]
- MIC (Klebsiella pneumoniae [1]): 256 µg/mL (≈ 668 µM)
- MIC (Escherichia coli [2]): ≤ 0.125 µg/mL
- MIC (Serratia marcescens [3]): 2 µg/mL (≈ 5.22 µM)
- MIC (Escherichia coli [4]): 2 µg/mL (≈ 5.22 µM)
- MIC (Escherichia coli [6]): 2 µg/mL (≈ 5.22 µM)

Compound: CCN1CCN(C(=O)N[C@@H](C(=O)N[C@@H]2C(=O)N3[C@@H]2SC(C)(C)[C@@H]3C(=O)O)c2ccccc2)C(=O)C1=O [PIPERACILLIN]
- MIC (Klebsiella pneumoniae [13]): > 256 µg/mL
- MIC (Klebsiella pneumoniae [1]): > 256 µg/mL
- MIC (Escherichia coli [2]): 1 µg/mL (≈ 1.93 µM)
- MIC (Serratia marcescens [3]): 256 µg/mL (≈ 495 µM)
- MIC (Klebsiella pneumoniae [14]): > 256 µg/mL
- MIC (Escherichia coli [4]): > 256 µg/mL
- MIC (Escherichia coli [6]): 256 µg/mL (≈ 495 µM)
- MIC (Escherichia coli [15]): 256 µg/mL
- MIC (Escherichia coli [16]): 256 µg/mL
- MIC (Escherichia coli [17]): 1 µg/mL
- MIC (Serratia marcescens [18]): 128 µg/mL

Compound: GENTAMICIN
- MIC (Klebsiella pneumoniae [1]): > 256 µg/mL
- MIC (Escherichia coli [2]): 0.25 µg/mL
- MIC (Klebsiella pneumoniae [5]): > 256 µg/mL
- MIC (Escherichia coli [19]): 64 µg/mL
- MIC (Escherichia coli [6]): 0.25 µg/mL

From ChEMBL document CHEMBL1255346 (2008)
